Data from patent US20110257131A1, “PHENYLALKYL-IMIDAZOLE-BISPHOSPHONATE COMPOUNDS” (NOVARTIS AG, priority 2008, published 2011).

Biological target: T1, Human farnesyl pyrophosphate synthase (FPPS, Swissprot ID: P14324) (Homo sapiens, UniProt P14324)
T1 construct: made in house
T1 sequence (P14324 67-419 limits assumed): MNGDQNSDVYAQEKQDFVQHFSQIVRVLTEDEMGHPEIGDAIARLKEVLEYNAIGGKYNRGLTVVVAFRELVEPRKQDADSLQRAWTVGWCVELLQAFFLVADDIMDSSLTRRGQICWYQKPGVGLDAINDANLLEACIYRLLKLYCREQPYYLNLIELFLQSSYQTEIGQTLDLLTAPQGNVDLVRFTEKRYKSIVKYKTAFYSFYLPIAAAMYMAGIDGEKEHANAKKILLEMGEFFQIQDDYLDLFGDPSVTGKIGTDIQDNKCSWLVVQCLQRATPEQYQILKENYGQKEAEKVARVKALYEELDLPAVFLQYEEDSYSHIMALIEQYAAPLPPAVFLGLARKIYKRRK
Experiment: FPPS assay (label-free LC/MS/MS quantification of farnesyl pyrophosphate)
Type: biochemical
Settings: cell-free in vitro FPPS assay; 5 min pre-incubation with enzyme, GPP/IPP 5 μM each, 30 min reaction
Procedure: For example, in a cell-free in vitro assay the superiority of compounds of the formula I over compounds already known can be shown. Briefly, the reaction proceeds in the presence of enzyme and an inhibitor of the formula I, and the reaction product (farneysyl pyrophosphate) is quantified by LC/MS/MS.
In detail, the inhibitor and enzyme are pre-incubated before adding the substrates
The assay is a label-free assay for farnesyl pyrophosphate synthase (FPPS) based on LC/MS/MS. This method quantifies in-vitro untagged farnesyl pyrophosphate (FPP) and is suitable for high throughput screening (HTS) to find inhibitors of FPPS and for the determinations of IC50 values of candidate compounds. The analysis time is 2.0 minutes with a total cycle time of 2.5 minutes. The analysis can be formatted for 384-well plates resulting in an analysis time of 16 hours per plate.
Pentanol, methanol, and isopropyl alcohol are HPLC grade and obtained from Fisher Scientific, DMIPA is from Sigma-Aldrich. Water is from an in-house Milli-Q system. The assay buffer (20 mM HEPES, 5 mM MgCl2 and 1 mM CaCl2) is prepared by dilution from […] stock solutions obtained from Sigma-Aldrich. Standards of geranyl pyrophosphate (GPP), […], and farnesyl S-thiolopyrophosphate (FSPP) are from Echelon Biosciences (Salt Lake City, Utah). Human farnesyl pyrophosphate synthase (FPPS, Swissprot ID: P14324) (13.8 mg/mL) is prepared as described by Rondeau at al (ChemMedChem 2006, 1, 267-273.
LC/MS/MS analyses are performed on a Micromass Quattro Micro tandem quadrupole mass analyser (Waters Corp, Milford, Mass., USA) interfaced to an Agilent 1100 binary LC pump Agilent Technologies, Inc., Santa Clara, Calif., USA). Injection is performed with a CTC Analytics autosampler (Leap Technologies Inc., Carrboro, N.C., USA) using an injection loop size of 2.5 μL. Chromatography is performed on a Waters 2.1×20 mm Xterra MS C18 5 μm guard column (P/N186000652) (Waters Corp., Milford, Mass., USA) contained in a guard column holder (P/N 186000262) using 0.1% DMIPA/methanol as solvent A and 0.1% DMIPA/water as solvent B (DMIPA is dimethylisopropylamine). The gradient is 5% A from 0.00 to 0.30 min, 50% A at 0.31 min., 80% A at 1.00 min., and 5% A from 1.01 to 2.00 min. The flow rate is 0.3 mL/min, and the flow is diverted to waste from 0.00 to 0.50 min and again from 1.20 to 2.00 min.
The Multiple Reaction Monitoring (MRM) transitions monitored are 381->79—for FPP and 397->159—for FSPP at a collision energy of 22 eV and a collision cell pressure of 2.1×10-3 mbar of Ar. The dwell time per transition is 400 msec with a span of 0.4 Da. The inter-channel delay and interscan delay are both 0.02 sec. Other mass spectrometric operating parameters are: capillary, 2.0 kV; cone, 35 V; extractor, 2.0 V, source temp., 100 ° C.; desolvation gas temp., 250° C.; desolvation gas flow, 650 L/hr; cone gas flow, 25 L/hr; multiplier, 650 V.
The total cycle time per sample is 2.5 minutes. Since the analysis is formatted for 384-well plates, a plate is analyzed in 16 hours. The chromatograms are processed using Quanlynx software, which divides the area of individual FPP peaks by the area of the FSPP peaks (internal standard). The resulting values are reported as the relative response for the corresponding sample well.
Into each well of a 384-well plate, 5 μL of compound in 20% DMSO/water is placed. […]

O=P(O)(O)C(O)(Cn1cncc1CCCc1ccccc1)P(=O)(O)O [Example 1, {1-Hydroxy-2-[5-(3-phenyl-propyl)-imidazol-1-yl]-1-phosphono-ethyl}-phosphonic acid]
IC50: 1.9 nM

O=P(O)(O)C(O)(Cn1cnc(Cc2ccccc2)c1)P(=O)(O)O [Example 2, [2-(4-Benzyl-imidazol-1-yl)-1-hydroxy-1-phosphono-ethyl]-phosphonic acid]
IC50: 1.4 nM

O=P(O)(O)C(O)(Cn1cnc(CCc2ccccc2)c1)P(=O)(O)O [Example 3, [1-Hydroxy-2-(4-phenethyl-imidazol-1-yl)-1-phosphono-ethyl]-phosphonic acid]
IC50: 1.9 nM

O=P(O)(O)C(O)(Cn1cncc1CCc1ccccc1)P(=O)(O)O [Example 4, [1-Hydroxy-2-(5-phenethyl-imidazol-1-yl)-1-phosphono-ethyl]-phosphonic acid]
IC50: 6.7 nM

Cc1ccc(CCCc2cncn2CC(O)(P(=O)(O)O)P(=O)(O)O)cc1 [Example 5, {1-Hydroxy-1-phosphono-2-[5-(3-p-tolyl-propyl)-imidazol-1-yl]-ethyl}-phosphonic acid]
IC50: 3.5 nM
